Reference: patent US20230048888A1, “USE OF TRIAZOLOTRIAZINE DERIVATIVE IN TREATMENT OF DISEASES” (ZHEJIANG VIMGREEN PHARMACEUTICALS, LTD., priority 2019, published 2023)

Assays:
[1] = system: haloperidol-induced stiffness; assay: Haloperidol-induced Parkinson's disease stiffness model in CD-1 mice (rearing and bar tests); assay type: in vivo
Excerpt: Parkinson's disease (PD) is a common class of degenerative disease of the nervous system with the main pathological changes including the loss of substantia nigra dopaminergic neurons and the decrease of dopamine transmitter content, leading to tremor at rest, muscle stiffness, […], postural reflex disorders and other clinical symptoms. Haloperidol, a dopamine D2 receptor blocker, can block the dopamine D2 receptor in the striatum, leading to mouse dystonic postures, namely, stiffness and hypokinesia. This model is a recognized animal model of Parkinson's syndrome. The ameliorative effect of a test substance on the stiffness symptom of Parkinson's disease induced by haloperidol in CD-1 mice was evaluated. 57 SPF-grade male CD-1 mice (4 weeks old at the time of purchase and 8 weeks old at the time of experiment) with the weight of about 40 g were randomly divided into 5 groups, namely, a vehicle group (n=11), a group of 1 mg/kg benzene sulfonate of Compound 40 (n=11), a group of 3 mg/kg benzene sulfonate of Compound 40 (n=12), a group of 10 mg/kg benzene sulfonate of Compound 40 (n=12), and a group of 30 mg/kg benzene sulfonate of Compound 40 (n=11). 1 mg/kg haloperidol was injected subcutaneously at an injection volume of 10 ml/kg. 30 minutes after the injection, Compound 40 at each dose was intragastrically infused at a volume of 10 ml/kg. At the 1st hour and the 4th hour after the administration was completed, the rearing and bar tests were performed respectively, and the number of standings and on-bar time of the mice were counted to evaluate the ameliorative effect of Compound 40 on the stiffness symptom of haloperidol-induced Parkinson's disease in CD-1 mice. […] Firstly, the acetate of Compound 22 at each dose was intragastrically infused at a volume of 10 ml/kg. After 30 min, 1 mg/kg haloperidol was injected subcutaneously at an injection volume of 10 ml/kg. At the 1st hour and the 4th hour after the administration was completed, the rearing and bar tests were performed respectively, and the number of standings and on-bar time of the mice were counted to evaluate the ameliorative effect of the acetates of Compound 22 on the stiffness symptom of haloperidol-induced Parkinson's disease in CD-1 mice. […] Firstly, Compound 27 at each dose was intragastrically infused at a volume of 10 ml/kg. After 30 min, 1 mg/kg haloperidol was injected subcutaneously at an injection volume of 10 ml/kg. At the 1st hour and the 4th hour after the administration was completed, the rearing and bar tests were performed respectively, and the number of standings and on-bar time of the mice were counted to evaluate the ameliorative effect of Compound 27 on the stiffness symptom of haloperidol-induced Parkinson's disease in CD-1 mice. The mice were subcutaneously injected with haloperidol at abdomen at a dose of 1 mg/kg, with the concentration of a working solution of 0.1 mg/ml and an injection volume of 10 ml/kg. At the 1st hour and the 4th hour after drug intervention, the mice were put into a white transparent plastic bucket with a diameter of 20 cm and a height of 21 cm. The mice were allowed to acclimate in the bucket for 5 min before starting video recording. The spontaneous activity behaviors of the mice within 10 minutes were recorded, whereby the number of standings was counted. The more the standings, the more frequent the spontaneous exploration activities of the mice, and the lower the degree of stiffness. At the time points of 1st and 4th hours after the rearing test was completed, bar test was carried out. The mice were placed on a long wooden bar with a diameter of […] and a height of 6 cm. The mice were let to hold the wooden bar with forelimbs, only with the buttocks or hind limbs on the ground. The timing was stopped when the hind limbs left the bench top or the fore limbs left the wooden bar, and the on-bar time of the mice was recorded. Each mouse was tested 3 times, and the maximum on-bar time and the average on-bar time were counted. […]

[2] = molecular target: T1, adenosine receptor A3 (Homo sapiens, UniProt P0DMS8); assay: cAMP experiment on Gi-coupled adenosine receptor A3 (CHO); assay type: cell-based; details: cAMP accumulation; read-out: IC50 (nM) CHO cells (ADORA3)
T1 construct: host or cells: CHO
T1 sequence (P0DMS8 1-318): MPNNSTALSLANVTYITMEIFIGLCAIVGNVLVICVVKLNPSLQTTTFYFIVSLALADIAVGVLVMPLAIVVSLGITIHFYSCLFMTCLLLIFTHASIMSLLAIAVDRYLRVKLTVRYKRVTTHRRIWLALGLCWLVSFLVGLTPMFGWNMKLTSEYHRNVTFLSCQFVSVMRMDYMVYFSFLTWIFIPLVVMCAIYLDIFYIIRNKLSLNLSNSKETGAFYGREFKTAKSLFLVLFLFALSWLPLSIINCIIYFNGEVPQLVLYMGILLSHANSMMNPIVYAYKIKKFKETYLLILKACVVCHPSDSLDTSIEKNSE
Method: Similarly, a CHO cell strain stably expressing the adenosine receptor A3 was taken as a study object (PerkinElmer, ES-012-C) for the experiment. The IC50 value of the compound was calculated.

[3] = Experiment II, 3 mg/kg intragastric, 1 h
[4] = Experiment II, 3 mg/kg intragastric, 4 h
[5] = Experiment II, 10 mg/kg intragastric, 1 h
[6] = Experiment II, 10 mg/kg intragastric, 4 h
[7] = Experiment II, 30 mg/kg intragastric, 1 h
[8] = Experiment II, 30 mg/kg intragastric, 4 h
[9] = Experiment III, 3 mg/kg intragastric, 1 h
[10] = Experiment III, 3 mg/kg intragastric, 4 h
[11] = Experiment III, 10 mg/kg intragastric, 1 h
[12] = Experiment III, 10 mg/kg intragastric, 4 h
[13] = Experiment III, 30 mg/kg intragastric, 1 h
[14] = Experiment III, 30 mg/kg intragastric, 4 h

Structure (SMILES)	Average on-bar time [1, 5] [s]	Maximum on-bar time [1, 5] [s]	Average on-bar time [1, 6] [s]	Maximum on-bar time [1, 6] [s]	IC50 [2] [nM]	Average on-bar time [1, 11] [s]	Maximum on-bar time [1, 11] [s]	Average on-bar time [1, 12] [s]	Maximum on-bar time [1, 12] [s]	other results
CC(=O)O.Nc1nc(NCCc2ccc(NC3COC3)cc2)nc2nc(-c3ccco3)nn12 [Acetate of Compound 22, 2-(furan-2-yl)-N5-(4-(oxetane-3-ylamino)phenethyl)-[1,2,4]triazolo[1,5-a][1,3,5]triazine-5,7-diamine acetate]	41.88 ± 10.56	77.13 ± 25.78	33.17 ± 6.69	50.50 ± 12.24	–	–	–	–	–	Average on-bar time [1, 3]: 109.38 ± 13.74 s; Maximum on-bar time [1, 3]: 157.50 ± 18.11 s; Average on-bar time [1, 4]: 109.33 ± 26.37 s; Maximum on-bar time [1, 4]: 172.25 ± 58.28 s; Average on-bar time [1, 7]: 26.17 ± 3.88 s; Maximum on-bar time [1, 7]: 42.25 ± 8.18 s; Average on-bar time [1, 8]: 24.13 ± 4.28 s; Maximum on-bar time [1, 8]: 32.88 ± 6.21 s
Nc1nc(NCCc2ccc(NC3COC3)cc2)nc2nc(-c3ccco3)nn12 [Compound 22, 2-(furan-2-yl)-N5-(4-(oxetan-3-ylamino)phenethyl)-[1,2,4]triazolo[1,5-a][1,3,5]triazine-5,7-diamine]	–	–	–	–	585	–	–	–	–	–
COCCNc1ccc(CCNc2nc(N)n3nc(-c4ccco4)nc3n2)cc1 [Compound 27, 2-(furan-2-yl)-N5-(4-((2-methoxyethyl)amino)phenethyl)-[1,2,4]triazolo[1,5-a][1,3,5]triazine-5,7-diamine]	–	–	–	–	458	34.83 ± 8.63	61.38 ± 15.59	39.13 ± 14.33	55.13 ± 18.32	Average on-bar time [1, 9]: 56.83 ± 11.67 s; Maximum on-bar time [1, 9]: 88.00 ± 22.07 s; Average on-bar time [1, 10]: 75.11 ± 19.52 s; Maximum on-bar time [1, 10]: 109.33 ± 28.68 s; Average on-bar time [1, 13]: 22.04 ± 4.19 s; Maximum on-bar time [1, 13]: 35.00 ± 8.59 s; Average on-bar time [1, 14]: 23.00 ± 4.46 s; Maximum on-bar time [1, 14]: 31.88 ± 5.75 s
Cn1nnc(-c2ccc(CCNc3nc(N)n4nc(-c5ccco5)nc4n3)cc2)n1 [Compound 40, N5-(4-(2-methyl-2H-tetrazol-5-yl)phenethyl)-2-(furan-2-yl)-[1,2,4]triazolo[1,5-a][1,3,5]triazine-5,7-diamine]	–	–	–	–	928	–	–	–	–	–
CCn1c(=O)c2c(nc(/C=C/c3ccc(OC)c(OC)c3)n2C)n(CC)c1=O [Istradefylline, reference compound]	23.04 ± 4.88	30.38 ± 5.84	24.67 ± 5.21	35.75 ± 8.73	2080	23.71 ± 6.50	40.75 ± 13.17	34.08 ± 6.69	54.75 ± 15.58	–
